The record followed here is US12064420B2, “Tie-2 activators targeting the Schlemm's canal” (EyePoint Pharmaceuticals, Inc., priority 2019, dated 2024).

This assay concerns ocular normotensive human patients with diabetic eye disease. In words: Phase 2 trial: IOP after subcutaneous Compound 1 alone or with intravitreal ranibizumab, diabetic macular edema. It is filed as in vivo. As for the experimental part: IOP in patients were measured using a double-masked, parallel-group designed to assess the effects of subcutaneous (SC) Compound 1 (sodium salt) alone, or as an adjunct to intravitreal ranibizumab trial. 144 human subjects with diabetic retinopathy complicated by center-involved diabetic macular edema (DME) were randomized to 3 months of one of 3 treatments: 1) Compound 1 (15 mg) SC twice daily (BID) plus sham monthly intravitreal injection (IVT); 2) Compound 1 SC BID plus ranibizumab (0.3 mg) monthly IVT; and 3) Placebo SC BID+ranibizumab IVT. At baseline, mean age was 61.3±1.3 years; 59% of subjects were male; 82.6% had Type 2 diabetes; mean HBA1c was 7.5%±1.3%; mean best corrected visual acuity was 60.2 ETDRS letters (Snellen 20/63); and mean IOP was 15.7 mmHg±3.4. Ophthalmic safety assessments were performed at baseline and monthly during the 3-month treatment period including a single IOP measurement by applanation tonometry in both the study eye and the fellow eye at each time point. By protocol, all patients had baseline IOP<24 mmHg (ocular normotensive).
In the pre-specified safety analysis, change from baseline IOP was analyzed using a t-test (null hypothesis 0 change from baseline). The level of significance was set at 0.05. A post hoc analysis of the subject level IOP measure was the change from baseline in the average over both eyes within a subject for each timepoint. Statistical testing of each timepoint was completed using ANCOVA with baseline IOP (averaged over both eyes within a subject) as covariate. Additionally, statistical testing averaging across all timepoints was completed using a mixed-model repeated measures ANCOVA. The level of significance was set at 0.05.

Where [1] appears, read: average of study eye and fellow eye, week 4.
The mark [2] stands for this setting: average of study eye and fellow eye, week 8.
Setting [3] is: average of study eye and fellow eye, week 12.

For “ranibizumab [Placebo + ranibizumab, reference compound]”, under setting [1], the “Week 4 subject-level IOP change from BL, mean (SD)” value is −0.2 (2.61) mmHg and the “Week 4 subject-level IOP, mean (SD)” value is 15.2 (3.50) mmHg. Under setting [2], the “Week 8 subject-level IOP change from BL, mean (SD)” value was 0.2 (2.86) mmHg and the “Week 8 subject-level IOP, mean (SD)” value is given as 15.3 (3.31) mmHg. Also, under setting [3], the “Week 12 subject-level IOP change from BL, mean (SD)” value was 0.0 (3.32) mmHg and the “Week 12 subject-level IOP, mean (SD)” value is 15.5 (3.85) mmHg. For the setting “fellow eye (FE), week 4”, the “Week 4 IOP change from BL, mean (SD)” value is −0.3 (3.49) mmHg and the “Week 4 IOP, mean (SD)” value is on record as 15.5 (4.85) mmHg. Where the note is “fellow eye (FE), week 8”, the “Week 8 IOP change from BL, mean (SD)” value was −0.3 (3.44) mmHg and the “Week 8 IOP, mean (SD)” value was 15.5 (4.52) mmHg. Moreover, under “fellow eye (FE), week 12”, the “Week 12 IOP change from BL, mean (SD)” value is −0.1 (3.62) mmHg and the “Week 12 IOP, mean (SD)” value is reported as 15.7 (5.19) mmHg. Besides, where the note is “study eye (SE), week 4”, the “Week 4 IOP change from BL, mean (SD)” value is −0.1 (2.74) mmHg and the “Week 4 IOP, mean (SD)” value was 15.0 (3.50) mmHg. Also, where the note is “study eye (SE), week 8”, the “Week 8 IOP change from BL, mean (SD)” value is on record as 0.0 (3.25) mmHg and the “Week 8 IOP, mean (SD)” value is recorded as 15.0 (3.61) mmHg. Besides, for the setting “study eye (SE), week 12”, the “Week 12 IOP change from BL, mean (SD)” value is recorded as 0.1 (3.83) mmHg and the “Week 12 IOP, mean (SD)” value is 15.3 (4.09) mmHg. In addition, under “study or fellow eye, all time points”, the “mean change in IOP from baseline” value is given as −0.3 to +0.1 mmHg.
